Measurements as given in publication PMC4303869 (Scientific Reports, 2015).

Target: Aβ42 (amyloid β-protein 42) (Homo sapiens, UniProt P05067)
Assay: ThT fluorescence fibrillogenesis assay
Format: biochemical

Sequence of Aβ42 (amyloid β-protein 42) (P05067 672-713): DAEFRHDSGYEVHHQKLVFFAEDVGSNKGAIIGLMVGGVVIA

| IC50 [nM] | Compound |
| --- | --- |
| 2400 ± 400 | O=C(O[C@@H]1Cc2c(O)cc(O)cc2O[C@@H]1c1cc(O)c(O)c(O)c1)c1cc(O)c(O)c(O)c1 [EGCG] |
| 1500 ± 300 | Oc1ccc2c(c1)OC[C@]1(O)Cc3cc(O)c(O)cc3[C@H]21 [brazilin] |
